Experimental data taken from patent US20140357512A1, “HISTONE DEACETYLASE (HDAC) BIOMARKERS IN MULTIPLE MYELOMA” (priority 2013, published 2014).

Tested on: human myeloma cell line MM.1S
Assay: SILAC acetylated-lysine peptide profiling, HDAC inhibitor vs DMSO (light/heavy ratio)
Format: cell-based
Text: An embodiment of the invention comprises utilizing the SILAC method in order to quantitate changes in protein expression between two or more populations of cells. The SILAC method is a technique based on mass spectrometry that detects differences in protein abundance among samples using non-radioactive isotopic labeling. The SILAC method is known in the art, and described in detail in Ong et al., “Stable Isotope Labeling by Amino Acids in Cell Culture, SILAC, as a Simple and Accurate Approach to Expression Proteomics”, Molecular & Cellular Proteomics, vol. 1, pp. 376-386 (2002), which is incorporated herein by reference in its entirety.
Briefly, the SILAC method involves growing two populations of cells in cell culture. The first population of cells is grown in growth media containing normal amino acids (“normal media”). The second population of cells is grown in media lacking a standard essential amino acid (such as lysine), but is then supplemented with a non-radioactive, isotopically labeled form of that essential amino acid (such as lysine labeled with ^13C atoms, rather than normal ^12C atoms), which is called “heavy media”. When the two populations of cells are each growing in the medium, they incorporate the amino acids into all of their proteins. The growth of cells maintained in the heavy media is no different from that in normal media. All peptides containing the heavy amino acids are heavier than their normal counterparts. The cells from each of the two populations of cells are lysed. The lysates from each of the two cell populations are then combined. The combined cell lysates are then analyzed by mass spectrometry. Pairs of chemically identical peptides of different stable isotope composition can be differentiated in a mass spectrometer due to their difference in mass. The ratio of peak intensities in the mass spectrum for such peptide pairs reflects the abundance ratio for the two proteins.
This example describes SILAC studies that were performed to compare the effects of three different HDAC inhibitors (Compound A, Compound B, and tubastatin A) to a control on a human multiple myeloma cell line. The HDAC inhibitors were also compared amongst themselves to determine differences in their effects.
A human myeloma cell line MM.1S was grown using either ^12C (light) or ^13C (heavy) lysine containing culture medium. The “heavy” cells were treated with DMSO as the control, and the “light” cells were treated with a single HDAC inhibitor at 37° C. for 6 hours. The heavy and light cells were lysed, and the lysates were mixed in 1:1 ratio and digested with the protease trypsin. The acetylated lysine containing peptides (due to the action of the HDAC inhibitor) in the digested peptide pool were captured by a non-specific anti-acetylated lysine antibody cocktail (the antibodies identify both light and heavy acetylated peptides), and subjected to mass spectrometry analysis in order to identify thousands of individual peptides.
Thousands of peptides were identified in pairs (^12C and ^13C) due to their known mass differences. The amino acid sequence and quantitative ratio (Light/Heavy) of a given peptide in two differentially treated cell lysates were then determined and annotated with their possible protein (gene) sources.
As stated above, three HDAC inhibitors (Compound A, Compound B, and Tubastatin A) were used. Thus, the SILAC method was performed three times, with a different HDAC inhibitor compared to a control each time. Accordingly, there are three pairs of quantitative data in the table below, i.e., Compound A:DMSO, Compound B:DMSO, and Tubastatin A:DMSO. A cut-off of 1.30 fold of change (increase or decrease) was then used to determine “changed” or “+” in the table, and any peptides with a fold of change less than 1.3 fold were determined to be “unchanged” or “0” in the table. Those peptides that were not identified were marked as “NA” in the table. […]

O=C(NO)c1cnc(NC2(c3cccc(F)c3)CCCCC2)nc1 [Compound B, 2-((1-(3-fluorophenyl)cyclohexyl)amino)-N-hydroxypyrimidine-5-carboxamide]
light to heavy ratio (L/H ratio) of acetylated peptide TACAINK(ac)VLMGR (SEQ ID NO: 584) (Isoform 1 of Protein FAM98A [297], gene FAM98A, inhibitor:DMSO): 0.00 log 2 | light to heavy ratio (L/H ratio) of acetylated peptide VLSK(ac)[…] (SEQ ID NO: 294) (Isoform 1 of Protein SET [154], SET, drug:DMSO): 0.00 log 2 | light to heavy ratio (L/H ratio) of acetylated peptide […](ac)ALK (SEQ ID NO: 349) (Isoform 1 of RNA-binding protein with serine-rich domain 1 [218], RNPS1, drug:DMSO): −0.46 log 2 | light to heavy ratio (L/H ratio), log 2 scale, acetylated peptide […](ac)TDQAQDVK (SEQ ID NO: 765) (Isoform 1 of Signal recognition particle 9 kDa protein [52], gene SRP9, drug:DMSO): 0.00 | light to heavy ratio (L/H ratio) of acetylated peptide VLISFK(ac)ANDIEK (SEQ ID NO: 363) (Isoform 2 of Actin-related protein 2/3 complex subunit 5 [90], ARPC5, drug:DMSO): 0.42 log 2 | light to heavy ratio (L/H ratio) of acetylated peptide TMSCSDK(ac)ILR (SEQ ID NO: 323) (Isoform 2 of Double-stranded RNA-specific adenosine deaminase [1013], ADAR, drug:DMSO): −0.65 log 2 | light to heavy ratio (L/H ratio) of acetylated peptide […](ac)[…] (SEQ ID NO: 336) (Isoform 2 of Fibronectin type-III domain-containing protein 3A [507], FNDC3A, drug:DMSO): 0.40 log 2 | light to heavy ratio (L/H ratio) of acetylated peptide K(ac)[…] (SEQ ID NO: 369) (Isoform 2 of Huntingtin-interacting protein K [35], C15orf63, drug:DMSO): 1.00 log 2 | light to heavy ratio (L/H ratio) of acetylated peptide GAK(ac)PVVVLQK (SEQ ID NO: 611) (Isoform 2 of Nipped-B-like protein [1000], gene NIPBL, inhibitor:DMSO): 0.00 log 2 | light to heavy ratio (L/H ratio) of acetylated peptide LIAGNK(ac)[…] (SEQ ID NO: 512) (Isoform 2 of Nuclear factor related to kappa-B-binding protein [1262], gene NFRKB, inhibitor:DMSO): 0.00 log 2 | light to heavy ratio (L/H ratio) of acetylated peptide […](ac)K (SEQ ID NO: 626) (Isoform 2 of Septin-7 [207], gene, inhibitor:DMSO): 0.00 log 2 | light to heavy ratio (L/H ratio) of acetylated peptide YQQFK(ac)DFQR (SEQ ID NO: 258) (Isoform 2 of Spliceosome RNA helicase DDX39B [349], SNORD84, DDX39B, drug:DMSO): 0.00 log 2 | light to heavy ratio (L/H ratio) of acetylated peptide GLCEK(ac)PLASAAAK (SEQ ID NO: 536) (Isoform 2 of Transportin-3 [513], gene TNPO3, inhibitor:DMSO): 0.00 log 2 | light to heavy ratio (L/H ratio), log 2 scale, acetylated peptide LEPLK(ac)PLK (SEQ ID NO: 772) (Isoform 3 of Proline-rich protein 12 [1223], gene PRR12, drug:DMSO): 0.00 | light to heavy ratio (L/H ratio) of acetylated peptide […](ac)FLK (SEQ ID NO: 326) (Isoform 5 of Transcriptional regulator ATRX [812], ATRX, drug:DMSO): 0.89 log 2 | light to heavy ratio (L/H ratio), log 2 scale, acetylated peptide YNDPIYVK(ac)LEK (SEQ ID NO: 764) (Isoform A of AP-1 complex subunit beta-1 [335], gene AP1B1, drug:DMSO): 0.00 | light to heavy ratio (L/H ratio) of acetylated peptide MVAAAK(ac)YAR (SEQ ID NO: 324) (Isoform Heart of ATP synthase subunit gamma mitochondrial [55], ATP5C1, drug:DMSO): −0.80 log 2 | light to heavy ratio (L/H ratio) of acetylated peptide VPNDK(ac)YYGAQTVR (SEQ ID NO: 625) (Isoform Mitochondrial of Fumarate hydratase mitochondrial [66], gene FH, inhibitor:DMSO): 0.00 log 2 | light to heavy ratio (L/H ratio) of acetylated peptide MMVAGFK(ac)K (SEQ ID NO: 339) (Isoform Short of Heterogeneous nuclear ribonucleoprotein U [524], HNRNPU, drug:DMSO): −0.40 log 2 | light to heavy ratio (L/H ratio) of acetylated peptide APQCLGK(ac)FIEIAAR (SEQ ID NO: 338) (Isoform Short of Heterogeneous nuclear ribonucleoprotein U [546], HNRNPU, drug:DMSO): 0.75 log 2 | L/H ratio of acetylated peptide (K(ac)GPSVQKR (SEQ ID NO: 413), Isoform 1 of Protein lin-28 homolog B [240], LIN28B): 0.47 log 2 | light to heavy ratio (L/H ratio) of acetylated peptide, log 2 scale (K(ac)[…] (SEQ ID NO: 152), Eukaryotic translation initiation factor 5A-2 [68], EIF5A2): 0.00 | light to heavy ratio (L/H ratio) of acetylated peptide, log 2 scale (K(ac)[…] (SEQ ID NO: 164), Similar to nonhistone chromosomal protein HMG-1 [30], HMGB1P4): 0.00 | light to heavy ratio (L/H ratio) of acetylated peptide, log 2 scale (K(ac)[…] (SEQ ID NO: 246), Endoplasmin [270], HSP90B1): 0.00 | L/H ratio of acetylated peptide (K(ac)[…] (SEQ ID NO: 373), T-complex protein 1 subunit zeta [280], CCT6A): 0.67 log 2 | L/H ratio of acetylated peptide (KDFIK(ac)TTVK (SEQ ID NO: 388), Protein DEK [367], DEK): 0.38 log 2 | L/H ratio of acetylated peptide (KK(ac)FLCVTK (SEQ ID NO: 411), Kelch repeat and BTB domain-containing protein 8 [178], KBTBD8): 1.00 log 2 | light to heavy ratio (L/H ratio) of acetylated peptide, log 2 scale (KLPK(ac)[…] (SEQ ID NO: 198), Ras-related protein Rab-5C [184], RAB5C): 0.00 | L/H ratio of acetylated peptide (KPEENPASK(ac)FSSASK (SEQ ID NO: 391), Eukaryotic translation initiation factor 4B [586], EIF4B): 0.53 log 2 | L/H ratio of acetylated peptide (KSEDTISK(ac)MNDFMR (SEQ ID NO: 409), Isoform 1 of Gamma-interferon-inducible protein 16 [451], IFI16): −0.57 log 2 | light to heavy ratio (L/H ratio) of acetylated peptide, log 2 scale (KTPCGEGSK(ac)TWDR (SEQ ID NO: 245), 40S ribosomal protein S20 [75], SNORD54, RPS20): 0.00 | light to heavy ratio (L/H ratio) of acetylated peptide IVADK(ac)DYSVTANSK (SEQ ID NO: 317) (L-lactate dehydrogenase B chain [82], LDHB, drug:DMSO): 0.00 log 2 | L/H ratio of acetylated peptide (LCK(ac)YIYAK (SEQ ID NO: 390), Eukaryotic translation initiation factor 3 subunit C [553], EIF3C, EIF3CL): 0.45 log 2
